Assay results published in patent publication EP0649656B1 (priority 1993, dated 1995).
Counter-ions that a name gives are not always drawn.

What was measured:
[1] = tested on: virus Herpès simplex type I; test: In vivo cutaneous HSV I infection in guinea pigs, local application; set-up: species or system cobayes albinos (Dunkin-Hartley, IFFA-CREDO); conditions: for infection herpétique cutanée / lésions cutanées: cobayes, application locale deux fois par jour pendant 3 jours, observations jours 5 à 8; for % moyen d'activité: moyenne entre le jour 5 et le jour 8
Method: L'expérimentation a été réalisée en application locale sur des cobayes albinos (Dunkin-Hartley, IFFA-CREDO) auxquels on a préalablement inoculé par scarification le virus Herpès simplex type I. Sur ces scarifications, on a appliqué 0,1 ml d'une solution de virus HSV I titrant 10 000 DI50 pour 100 µl. Un flanc des animaux a servi de témoin. Le traitement a été effectué deux fois par jour pendant 3 jours, la première application ayant lieu 18 h après l'inoculation.
Les paramètres retenus pour déterminer la gravité des lésions cutanées sont : érythèmes, indurations, nombre et taille des vésicules, aires d'infection et présence ou absence de virus. Les observations sont réalisées 5, 6, 7 et 8 jours après l'inoculation.

zonas = test: Human clinical use in zona; assay type: in vivo; conditions: clinique humaine
[2] = cited from earlier work
virus HSV I [3] = test: Virucidal activity by contact of the virus with the compounds, infra-cytotoxic doses; assay type: cell-based; conditions: doses infra-cytotoxiques, "-" = absence d'activité
Method: (§1) Dans un premier temps, on a donc déterminé l'activité virucide des différents composés testés par mise en contact du virus avec ces composés. Puis on a déterminé l'activité anti-virale des composés testés en inoculant le virus (sous la forme d'une suspension préalablement diluée dans du milieu de Hanks de manière à avoir une concentration en virus de 100 DE50 pour 10 µl de suspension) à une culture de fibroblastes de poumon embryonnaire (cellules commercialisées par la société Bio-Mérieux sous la référence MCR5), puis en traitant la culture cellulaire, inoculée par le virus, par les composés à tester, dilués également dans du milieu de Hanks. Les plaques de cultures cellulaires ont ensuite été observées au microscope inversé après 24h et 48h d'inoculation, ainsi que des cultures témoins non-inoculées et des virus témoins incubés sans composés. Les résultats sont rassemblés dans le tableau suivant: […]

virus HSV I [4] = test: Anti-viral activity in HSV I-inoculated embryonic lung fibroblast culture; assay type: cell-based; conditions: HSV I 100 DE50 pour 10 µl, fibroblastes de poumon embryonnaire MCR5, observation 24h et 48h; "-" = absence d'activité
Method: as §1

[5] = tested on: infections herpétiques buccales et vulvaires; test: Human clinical use in buccal and vulvar herpetic infections; assay type: in vivo, humaine

| Molecule | infection herpétique cutanée / lésions cutanées [1] | % moyen d'activité ([1]; concentration 0,2 %) | % moyen d'activité ([1]; concentration 1,0 %) | % moyen d'activité ([1]; concentration 2,0 %) | % moyen d'activité ([1]; concentration 4,0 %) | éruptions vésiculeuses et névralgies des territoires cutanés infectés (zonas) | solubilité dans l'alcool [2] | solubilité dans l'eau [2] | solubilité dans l'éther [2] | Concentrations minimales activité virucide (virus HSV I [3]) [µg/mL] | Concentrations minimales activité anti-virale (virus HSV I [4]) [µg/mL] | résultats en clinique humaine [5] |
| --- | --- | --- | --- | --- | --- | --- | --- | --- | --- | --- | --- | --- |
| acriflavine [ACF] | réduisent significativement | 0,0% | 44,5% | 81,5% | 95,2% | réduit significativement | partiellement soluble | soluble | pratiquement insoluble | 1 | 2 | résultats favorables |
| Nc1nc2c(ncn2COCCO)c(=O)[nH]1 [Acyclovir, 2-amino-1,9-dihydro-9-[(2-hydroxyethoxy)methyl]-6H-purin-6-one] | – | – | 55,2% | – | – | – | – | – | – | – | – | – |
| Oc1cccc2cccnc12 [8-HQS, sulfate d'hydroxy-8 quinoléine] | aucun effet | 0,0% | – | – | – | – | faiblement soluble | soluble | insoluble | – | – | – |
